# From ChEMBL document CHEMBL4229547, “Design, synthesis and biological mechanisms research on 1,2,3-triazole derivatives of Jiyuan Oridonin A” (Bioorg Med Chem, 2018)
# The source made the active and inactive calls. No cut-off for these calls is given here.
# What was measured:
# [1] = tested on: EC9706; assay: Antiproliferative activity against human EC9706 cells after 48 hrs by MTT assay; assay type: functional, cell-based; conditions: EC9706, 48 h
# [2] = tested on: MCF7; assay: Antiproliferative activity against human MCF7 cells after 48 hrs by MTT assay; assay type: functional, cell-based; conditions: MCF7, 48 h
# [3] = tested on: HGC-27; assay: Antiproliferative activity against human HGC27 cells after 48 hrs by MTT assay; assay type: functional, cell-based; conditions: HGC-27, 48 h
# [4] = tested on: GES1; assay: Antiproliferative activity against human GES-1 cells after 48 hrs by MTT assay; assay type: cell-based; conditions: GES1, 48 h
# [5] = tested on: MGC-803; assay: Induction of reactive oxygen species formation in human MGC803 cells at 3 ug/ml after 3 hrs by DCFH-DA staining-based flow cytometry (reference value: 7.1%); assay type: functional
# [6] = tested on: MGC-803; assay: Induction of apoptosis in human MGC803 cells assessed as upregulation of cytochrome c levels in cytoplasm at 1.5 to 6 ug/ml after 48 hrs by Western blot method; assay type: functional, cell-based
# [7] = tested on: MGC-803; assay: Induction of apoptosis in human MGC803 cells assessed as necrotic cells at 1.5 ug/ml by annexin V-FITC/propidium iodide staining-based flow cytometric method (reference value: 1%); assay type: functional
# [8] = tested on: MGC-803; assay: Induction of apoptosis in human MGC803 cells assessed as early apoptotic cells at 1.5 ug/ml in presence of N-acetyl cysteine by annexin V-FITC/propidium iodide staining-based flow cytometric method (reference value: 1.3%); assay type: functional
# [9] = tested on: MGC-803; assay: Induction of apoptosis in human MGC803 cells assessed as necrotic cells at 1.5 ug/ml in presence of N-acetyl cysteine by annexin V-FITC/propidium iodide staining-based flow cytometric method (reference value: 1%); assay type: functional
# [10] = tested on: MGC-803; assay: Induction of apoptosis in human MGC803 cells assessed as viable cells at 3 ug/ml in presence of N-acetyl cysteine by annexin V-FITC/propidium iodide staining-based flow cytometric method (reference value: 97.6%); assay type: functional; conditions: read-out: Activity
# [11] = tested on: MGC-803; assay: Cell cycle arrest in human MGC803 cells assessed as accumulation at G0/G1 phase at 1.5 ug/ml after 48 hrs in presence of N-acetyl cysteine by propidium iodide staining-based flow cytometric method (reference value: 52.5 +/- 3.71%); assay type: functional
# [12] = tested on: MGC-803; assay: Cell cycle arrest in human MGC803 cells assessed as accumulation at G0/G1 phase at 3 ug/ml after 48 hrs in presence of N-acetyl cysteine by propidium iodide staining-based flow cytometric method (reference value: 52.5 +/- 3.71%); assay type: functional
# [13] = tested on: MGC-803; assay: Cell cycle arrest in human MGC803 cells assessed as accumulation at S phase at 1.5 ug/ml after 48 hrs by propidium iodide staining-based flow cytometric method (reference value: 32.5 +/- 2.25%); assay type: functional
# [14] = tested on: MGC-803; assay: Cell cycle arrest in human MGC803 cells assessed as accumulation at S phase at 3 ug/ml after 48 hrs in presence of N-acetyl cysteine by propidium iodide staining-based flow cytometric method (reference value: 32.5 +/- 2.25%); assay type: functional
# [15] = tested on: MGC-803; assay: Cell cycle arrest in human MGC803 cells assessed as accumulation at G2/M phase at 1.5 ug/ml after 48 hrs by propidium iodide staining-based flow cytometric method (reference value: 17.2 +/- 1.35%); assay type: functional
# [16] = tested on: MGC-803; assay: Induction of apoptosis in human MGC803 cells assessed as upregulation of p53 levels at 1.5 to 6 ug/ml after 48 hrs by Western blot method; assay type: functional, cell-based
# [17] = tested on: MGC-803; assay: Induction of apoptosis in human MGC803 cells assessed as upregulation of p21 levels at 1.5 to 6 ug/ml after 48 hrs by Western blot method; assay type: functional, cell-based
structure (smiles),measurement,setting,value
C=C1C(=O)[C@]23[C@H](O)[C@H]1C[C@H](O)[C@H]2[C@]12CCCC(C)(C)[C@H]1C[C@H]3O[C@@H]2OCCc1cn(Cc2ccc(Cl)cc2)nn1,IC50,[1],5.04 µM
same,IC50,[2],4.76 µM
same,IC50,[3],2.97 µM
same,IC50,[4],28.7 µM
same,Activity,[5],13.6%
same,Activity,[6],Active
same,Activity,[7],0.5%
same,Activity,[8],4.2%
same,Activity,[9],0.6%
same,viability at 3 µg/mL,[10],94%
same,Activity,[11],55.4%
same,Activity,[12],50.4%
same,Activity,[13],29.2%
same,Activity,[14],33.2%
same,Activity,[15],26.7%
same,Activity,[16],Active
same,Activity,[17],Active
